#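 Five compound concentrations were applied to cells in 96-well plates for 48 hours; endpoints were derived by simple linear interpolation of the resulting dose-response curve. GI50: concentration for 50% inhibition of growth. TGI: concentration producing complete growth inhibition.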
# Columns and labels:
# Assay in all cases: NCI tumour cell line growth inhibition, 48 h
# [1] = test system: 786-0 renal
# [2] = test system: A498 renal
# [3] = test system: A549 NSCLC
# [4] = test system: ACHN renal
# [5] = test system: BT-549 breast
# [6] = test system: CAKI-1 renal
# [7] = test system: CCRF-CEM leukemia
# [8] = test system: COLO 205 colon
# [9] = test system: DU-145 prostate
# [10] = test system: EKVX NSCLC
# [11] = test system: HCC-2998 colon
# [12] = test system: HCT-116 colon
# [13] = test system: HCT-15 colon
# [14] = test system: HL-60(TB) leukemia
# [15] = test system: HOP-62 NSCLC
# [16] = test system: HOP-92 NSCLC
# [17] = test system: HS 578T breast
# [18] = test system: HT29 colon
# [19] = test system: IGROV1 ovarian
# [20] = test system: K-562 leukemia
# [21] = test system: KM12 colon
# [22] = test system: LOX IMVI melanoma
# [23] = test system: M14 melanoma
# [24] = test system: MALME-3M melanoma
# [25] = test system: MCF7 breast
# [26] = test system: MDA-MB-231 breast
# [27] = test system: MDA-MB-435
# [28] = test system: MDA-MB-468 breast
# [29] = test system: MOLT-4 leukemia
# [30] = test system: NCI-H226 lung
# [31] = test system: NCI-H23 lung
# [32] = test system: NCI-H460 lung
# [33] = test system: NCI-H522 lung
# [34] = test system: OVCAR-3 ovarian
# [35] = test system: OVCAR-4 ovarian
# [36] = test system: OVCAR-5 ovarian
# [37] = test system: OVCAR-8 ovarian
# [38] = test system: PC-3 prostate
# [39] = test system: RPMI-8226 leukemia
# [40] = test system: RXF 393 renal
# [41] = test system: SF-268 CNS
# [42] = test system: SF-295 CNS
# [43] = test system: SF-539 CNS
# [44] = test system: SK-MEL-2 melanoma
# [45] = test system: SK-MEL-28 melanoma
# [46] = test system: SK-MEL-5 melanoma
# [47] = test system: SK-OV-3 ovarian
# [48] = test system: SN12C renal
# [49] = test system: SNB-19 CNS
# [50] = test system: SNB-75 CNS
# [51] = test system: SR leukemia
# [52] = test system: SW-620 colon
# [53] = test system: T-47D breast
# [54] = test system: TK-10 renal
# [55] = test system: U251 CNS
# [56] = test system: UACC-257 melanoma
# [57] = test system: UACC-62 melanoma
# [58] = test system: UO-31 renal
structure (smiles),measurement,setting,value
CN(C)c1ccnc(NCCCSC(c2ccccc2)(c2ccccc2)c2ccccc2)c1,GI50,[1],9.86 µM
same,TGI,[1],25.8 µM
same,GI50,[2],14.9 µM
same,TGI,[2],29 µM
same,GI50,[3],7.35 µM
same,TGI,[3],21.6 µM
same,GI50,[4],8.67 µM
same,TGI,[4],24.8 µM
same,GI50,[5],11.5 µM
same,TGI,[5],25 µM
same,GI50,[6],7.48 µM
same,TGI,[6],21 µM
same,GI50,[7],3.94 µM
same,TGI,[7],17 µM
same,GI50,[8],1.87 µM
same,TGI,[8],3.44 µM
same,GI50,[9],11 µM
same,TGI,[9],23 µM
same,GI50,[10],14.2 µM
same,TGI,[10],29.6 µM
same,GI50,[11],2.55 µM
same,TGI,[11],7.13 µM
same,GI50,[12],3.97 µM
same,TGI,[12],17 µM
same,GI50,[13],5.19 µM
same,TGI,[13],19.6 µM
same,GI50,[14],3.06 µM
same,TGI,[14],10.5 µM
same,GI50,[15],14.5 µM
same,TGI,[15],29.2 µM
same,GI50,[16],3.3 µM
same,TGI,[16],15.8 µM
same,GI50,[17],11.3 µM
same,TGI,[17],35.3 µM
same,GI50,[18],3 µM
same,TGI,[18],10.7 µM
same,GI50,[19],11.4 µM
same,TGI,[19],27.9 µM
same,GI50,[20],2.88 µM
same,TGI,[20],10.4 µM
same,GI50,[21],5.57 µM
same,TGI,[21],17.8 µM
same,GI50,[22],2.96 µM
same,TGI,[22],10.6 µM
same,GI50,[23],3.81 µM
same,TGI,[23],13.3 µM
same,GI50,[24],1.55 µM
same,TGI,[24],3.19 µM
same,GI50,[25],3.96 µM
same,TGI,[25],16.6 µM
same,GI50,[26],5.71 µM
same,TGI,[26],20.2 µM
same,GI50,[27],8.6 µM
same,TGI,[27],20.9 µM
same,GI50,[28],2.01 µM
same,TGI,[28],5.63 µM
same,GI50,[29],3.62 µM
same,TGI,[29],15 µM
same,GI50,[30],10.9 µM
same,TGI,[30],28.1 µM
same,GI50,[31],12.9 µM
same,TGI,[31],26.3 µM
same,GI50,[32],4.85 µM
same,TGI,[32],17.1 µM
same,GI50,[33],12 µM
same,TGI,[33],26.6 µM
same,GI50,[34],7.26 µM
same,TGI,[34],20.2 µM
same,GI50,[35],11.8 µM
same,TGI,[35],29.8 µM
same,GI50,[36],11.9 µM
same,TGI,[36],26 µM
same,GI50,[37],10.3 µM
same,TGI,[37],28 µM
same,GI50,[38],4.41 µM
same,TGI,[38],16.3 µM
same,GI50,[39],3.43 µM
same,TGI,[39],12.3 µM
same,GI50,[40],2.58 µM
same,TGI,[40],9.7 µM
same,GI50,[41],14.5 µM
same,TGI,[41],30.5 µM
same,GI50,[42],11.4 µM
same,TGI,[42],26.2 µM
same,GI50,[43],6.82 µM
same,TGI,[43],21.9 µM
same,GI50,[44],16.6 µM
same,TGI,[44],30.7 µM
same,GI50,[45],1.75 µM
same,TGI,[45],3.74 µM
same,GI50,[46],3.93 µM
same,TGI,[46],14.2 µM
same,GI50,[47],13.5 µM
same,TGI,[47],26.8 µM
same,GI50,[48],11.1 µM
same,TGI,[48],25.8 µM
same,GI50,[49],15.9 µM
same,TGI,[49],31.5 µM
same,GI50,[50],11.9 µM
same,TGI,[50],24.3 µM
same,GI50,[51],2.76 µM
same,TGI,[51],7.84 µM
same,GI50,[52],4.42 µM
same,TGI,[52],16.1 µM
same,GI50,[53],11.4 µM
same,TGI,[53],29 µM
same,GI50,[54],12.4 µM
same,TGI,[54],25.4 µM
same,GI50,[55],7.78 µM
same,TGI,[55],21.7 µM
same,GI50,[56],3.07 µM
same,TGI,[56],11.6 µM
same,GI50,[57],7.5 µM
same,TGI,[57],21.6 µM
same,GI50,[58],5.4 µM
same,TGI,[58],21.1 µM

# From PubChem BioAssay (NCI)
